Assay: Breath analysis by SIFT-MS before and after ingestion of 75 g glucose in healthy subjects
Type: in vivo, human
Settings: for Cmax (maximum levels) in breath, interquartile range (IQR) / Cmax (maximum levels) in breath, median (M): breath sampled every 5 minutes for 90 minutes
[1] = 10 healthy subjects fasted overnight, after 75 grams of glucose in 300 ml of water

Method: A total of 10 healthy subjects were recruited and instructed to fast overnight and avoid drinking alcohol the day before the experiment. Breath was analysed using selected ion flow tube mass spectrometry (SIFT-MS). […] Afterwards, 75 grams of glucose dissolved in 300 ml of water were ingested, and 3 consecutive breath samples were provided every 5 minutes for 90 minutes. Measured compounds were expressed as part per billion volume/volume (PPB) and plotted as a function of time. Ambient samples were collected before and after the procedure.
The subjects were asked to fast overnight and not drink alcohol the day before the experiment.
A total of 75 g of glucose from Bulk (https://www.bulk.com/uk/dextrose.html?view=ppc&pid=2378&gclid=CjwKCAjw-vmkBhBMEiwAlrMeF2SOAMhqgNq65EV8YC2XWu63e4ByfJckgwv5jKZfzCA6BbIB24sLSBoC—kQAvD_BwE) was weighted in a glass and 300 ml of water was added and mixed until the full amount was dissolved. A total of 6 blank samples were collected and analysed before and after the procedure. The subjects provided breath samples before and every 5 minutes over 90 minutes after glucose ingestion. Each timepoint was represented by a 15 second breath exhalation consecutively repeated 3 times ed o and averaged for every timepoint. Breath samples were directly sampled for Selected-ion flow-tube mass spectrometry (SIFT-MS). Subjects exhaled into a single use Mouthpiece and Reservoir Tube (PO007257 Imspex) that were replaced for each timepoint collection.
Scans were performed in batch mode; data were collected in single ion mode (SIM). SIM scan was 50 secs long.

SMILES | Tmax (time to maximum level) in breath, interquartile range (IQR) [1] [min] | Tmax (time to maximum level) in breath, median (M) [1] [min] | Cmax (maximum levels) in breath, interquartile range (IQR) [1] | Cmax (maximum levels) in breath, median (M) [1] [PPB] | Time for breath levels to return to baseline (after glucose administration, all investigated subjects) [min] | Return of breath levels to baseline (in words) (after glucose administration, investigated timeframe 90 minutes)
CC(=O)C(C)O (centres unmarked) [acetoin] | 10 to 15 | 10 | 4-8.8 PPB | 7 | ≤ 50 | –
CCO [ethanol] | – | – | 303-593 PPB | 400 | – | returned to baseline at the end of the investigated timeframe for all but 1 subject

Reference: patent publication US20260259232A1, “A METHOD” (OWLSTONE MEDICAL LIMITED, priority 2022, published 2026)
